Here are results for 39 molecules from patent US7449447B2, “Peptidomimetic NS3-serine protease inhibitors of hepatitis C virus” (priority 2003, dated 2008).

Each structure is given as a SMILES string. Where a SMILES comes first, the peptide text is derived from it. [ ]: non-standard residue; d: D form. The star is where a group is joined. Pro(3R,4S-CMe2) = CC1(C)[C@@H]2[C@@H](C(=O)O)NC[C@@H]21; Abu(4,4-F2) = N[C@@H](CC(F)F)C(=O)O; Phg = N[C@H](C(=O)O)c1ccccc1; Tle = CC(C)(C)[C@H](N)C(=O)O; Boc = CC(C)(C)OC(=O)*

The Ki is a dissociation constant, usually derived from enzyme kinetics or from competition with a known ligand.

One experiment deals with T1, HCV NS3/NS4a serine protease (Hepatitis C virus genotype 1b, UniProt P26663).
T1 construct: amino terminus of the NS3 protease domain (amino acids 3-181) with a tetrapeptide linker; made in house; host or cells: E. coli
T1 sequence (P26663 1013-1207, looked up, natural form): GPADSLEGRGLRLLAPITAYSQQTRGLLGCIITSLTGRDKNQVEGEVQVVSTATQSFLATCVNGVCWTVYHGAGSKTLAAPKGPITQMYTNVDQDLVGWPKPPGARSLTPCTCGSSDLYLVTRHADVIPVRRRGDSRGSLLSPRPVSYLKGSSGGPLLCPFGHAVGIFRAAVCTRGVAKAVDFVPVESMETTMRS
As to the kind of experiment: Spectrophotometric assay for HCV protease inhibitory activity (chromogenic ester substrates). The class given is biochemical, hepatitis C virus (strain 1b). Conditions: Ki Rating, Table 2; single chain NS4A21-32-GSGS-NS3 3-181 protease, 30° C., pH 6.5. Put shortly: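 Single-chain NS4A(21-32)-GSGS-NS3(3-181) protease (genotype 1b) from E. coli was used at 1.3 nM in 25 mM MOPS pH 6.5 with 300 mM NaCl, 30 °C and 4% DMSO. Chromogenic ester substrate cleavage was followed as PAP release at 370 nm over 60 min. Ki was derived from vo/vi versus [I] plots assuming competitive inhibition.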
Turning to `CC(C)[C@H](NC(=O)N[C@H](C(=O)N1C[C@@H]2OC(C)(C)C[C@@H]2[C@H]1C(=O)N[C@@H](CC(F)F)C(=O)NCCc1ccc(C(=O)O)cc1)C1CCCCC1)C(=O)OC(C)(C)C` [Example 150], the Ki was more than 500 nM.
In the case of `COC(=O)c1ccc(CCNC(=O)[C@H](CC(F)F)NC(=O)[C@@H]2[C@@H]3[C@H](CN2C(=O)[C@@H](NC(=O)N[C@H](C(=O)c2ccccc2)C(C)C)C(C)(C)C)C3(C)C)cc1` [Example 134], the Ki is 100 to 500 nM.
Same read-out and setting: the value for `CC(C)(C)OC(=O)N[C@H](C(=O)N1C[C@H]2[C@@H]([C@H]1C(=O)N[C@@H](CC(F)F)C(=O)NCCC(=O)O)C2(C)C)C(C)(C)C` [Example 169] was more than 500 nM.
As to `CC(C)(C)[C@H](NC(=O)NC1(CS(C)(=O)=O)CCCCC1)C(=O)N1C[C@H]2[C@@H](C1C(=O)NC(CC(F)F)C(=O)NCCc1ccc(C(N)=O)cc1)C2(C)C` (stereo partly drawn) [Example 135], the Ki fell in the range of 100 to 500 nM.
Take `CN(C)C(=O)[C@@H](NC(=O)CNC(=O)[C@H](CC(F)F)NC(=O)[C@@H]1[C@@H]2[C@H](CN1C(=O)[C@@H](NC(=O)OC(C)(C)C)C(C)(C)C)C2(C)C)c1ccccc1` [Example 171] (Boc-[Tle][Pro(3R,4S-CMe2)][Abu(4,4-F2)]G[Phg]-NMe2): the Ki is more than 500 nM.
Regarding `CC(C)[C@H](NC(=O)N[C@H](C(=O)N1C[C@H]2[C@@H]([C@H]1C(=O)N[C@@H](CC(F)F)C(=O)NCCC(=O)OC(C)(C)C)C2(C)C)C(C)(C)C)C(=O)OC(C)(C)C` [Example 174], the Ki is more than 500 nM.
Still for that read-out and setting: then `CC(C)[C@H](NC(=O)N[C@H](C(=O)N1C[C@H]2[C@@H]([C@H]1C(=O)N[C@@H](CC(F)F)C(N)=O)C2(C)C)C(C)(C)C)C(=O)OC(C)(C)C` [Example 164], with more than 500 nM.
Same read-out and setting: then `COC(=O)c1ccc(CCNC(=O)[C@H](CC(F)F)NC(=O)[C@@H]2[C@H]3CC(C)(C)O[C@H]3CN2C(=O)[C@@H](NC(=O)N[C@H](C(=O)OC(C)(C)C)C(C)C)C2CCCCC2)cc1` [Example 154], with more than 500 nM; and `CC1(NC(=O)N[C@H](C(=O)N2C[C@H]3[C@@H]([C@H]2C(=O)N[C@@H](CC(F)F)C(=O)NCCC(=O)OC(C)(C)C)C3(C)C)C(C)(C)C)CCCCC1` [Example 155], with more than 500 nM.
For the molecule `CC(C)[C@H](NC(=O)N[C@H](C(=O)N1C[C@H]2[C@@H]([C@H]1C(=O)N[C@@H](CC(F)F)C(=O)NCCc1ccc(C(=O)N(C)C)cc1)C2(C)C)C(C)(C)C)C(=O)O` [Example 131], the Ki lay in the range of 100 to 500 nM.
As for `CC1(NC(=O)N[C@H](C(=O)N2C[C@H]3[C@@H]([C@H]2C(=O)NC(CC(F)F)C(=O)O)C3(C)C)C(C)(C)C)CCCCC1` (stereo partly drawn) [Example 156], the Ki was more than 500 nM.
The same measure, in the same setting: the value for `COC(=O)c1ccc(CCNC(=O)C(CC(F)F)NC(=O)[C@@H]2[C@@H]3[C@H](CN2C(=O)[C@@H](NC(=O)N[C@H](C(=O)OC(C)(C)C)C(C)C)C(C)(C)C)C3(C)C)cc1` (stereo partly drawn) [Example 149] was more than 500 nM.

Still in this experiment, the particulars now being: Ki, Table 1; single chain NS4A21-32-GSGS-NS3 3-181 protease, 30° C., pH 6.5.
On to `CC(C)(C)[C@H](NC(=O)NC1(CS(C)(=O)=O)CCCCC1)C(=O)N1C[C@H]2[C@@H](C1C(=O)NC(CC(F)F)C(=O)NCCc1ccc(C(N)=O)cc1)C2(C)C` (stereo partly drawn) [Example 109], for which the Ki stood at 38 nM.
`CN(C[C@@H](NC(=O)N[C@H](C(=O)N1C[C@H]2[C@@H](C1C(=O)N[C@@H](CC(F)F)C(=O)NCCc1ccc(C(N)=O)cc1)C2(C)C)C(C)(C)C)C(C)(C)C)S(C)(=O)=O` (stereo partly drawn) [Example 106]: the Ki was found to be 27 nM.

Still in this experiment, the particulars now being: Ki, Table 3; rating; single chain NS4A21-32-GSGS-NS3 3-181 protease, 30° C., pH 6.5.
Regarding `CC(C)OCCCNC(=O)[C@H](CC(F)F)NC(=O)[C@@H]1[C@@H]2[C@H](CN1C(=O)[C@@H](NC(=O)N[C@H](CN(C)S(C)(=O)=O)C(C)(C)C)C(C)(C)C)C2(C)C` [Example 214], the Ki is more than 500 nM.
With `CN(C[C@@H](NC(=O)N[C@H](C(=O)N1C[C@H]2[C@@H]([C@H]1C(=O)N[C@@H](CC(F)F)C(=O)NCCS(=O)(=O)C(C)(C)C)C2(C)C)C(C)(C)C)C(C)(C)C)S(C)(=O)=O` [Example 253], the Ki was more than 500 nM.
As for `CN(C[C@@H](NC(=O)N[C@H](C(=O)N1C[C@H]2[C@@H]([C@H]1C(=O)N[C@@H](CC(F)F)C(=O)NCCc1ccc3c(c1)OCO3)C2(C)C)C(C)(C)C)C(C)(C)C)S(C)(=O)=O` [Example 272], the Ki was less than 100 nM.
As for `CC(CNC(=O)[C@H](CC(F)F)NC(=O)[C@@H]1[C@@H]2[C@H](CN1C(=O)[C@@H](NC(=O)N[C@H](CN(C)S(C)(=O)=O)C(C)(C)C)C(C)(C)C)C2(C)C)c1ccccc1` (stereo partly drawn) [Example 219], the Ki was less than 100 nM.
In the case of `Cc1ccc(CCNC(=O)[C@H](CC(F)F)NC(=O)[C@@H]2[C@@H]3[C@H](CN2C(=O)[C@@H](NC(=O)N[C@H](CN(C)S(C)(=O)=O)C(C)(C)C)C(C)(C)C)C3(C)C)cc1C` [Example 267], the Ki is less than 100 nM.
On to `CN(C[C@@H](NC(=O)N[C@H](C(=O)N1C[C@H]2[C@@H]([C@H]1C(=O)N[C@@H](CC(F)F)C(=O)NC1CCCC1)C2(C)C)C(C)(C)C)C(C)(C)C)S(C)(=O)=O` [Example 207], for which the Ki is more than 500 nM.
Regarding `Cc1cccc(CCNC(=O)[C@H](CC(F)F)NC(=O)[C@@H]2[C@@H]3[C@H](CN2C(=O)[C@@H](NC(=O)N[C@H](CN(C)S(C)(=O)=O)C(C)(C)C)C(C)(C)C)C3(C)C)c1` [Example 260], the Ki is less than 100 nM.
For the molecule `CN(C[C@@H](NC(=O)N[C@H](C(=O)N1C[C@H]2[C@@H]([C@H]1C(=O)N[C@@H](CC(F)F)C(=O)NC1CCN(Cc3ccccc3)CC1)C2(C)C)C(C)(C)C)C(C)(C)C)S(C)(=O)=O` [Example 243], the Ki is more than 500 nM.
Still for that read-out and setting: then `Cc1ccc(CCNC(=O)[C@H](CC(F)F)NC(=O)[C@@H]2[C@@H]3[C@H](CN2C(=O)[C@@H](NC(=O)N[C@H](CN(C)S(C)(=O)=O)C(C)(C)C)C(C)(C)C)C3(C)C)cc1` [Example 261], with less than 100 nM.
`CN(C[C@@H](NC(=O)N[C@H](C(=O)N1C[C@H]2[C@@H]([C@H]1C(=O)N[C@@H](CC(F)F)C(=O)NCCc1ccc(Cl)cc1Cl)C2(C)C)C(C)(C)C)C(C)(C)C)S(C)(=O)=O` [Example 283]: the Ki was less than 100 nM.
`CN(C[C@@H](NC(=O)N[C@H](C(=O)N1C[C@H]2[C@@H]([C@H]1C(=O)N[C@@H](CC(F)F)C(=O)N[C@H]1CCCC[C@@H]1OCc1ccccc1)C2(C)C)C(C)(C)C)C(C)(C)C)S(C)(=O)=O` [Example 255]: the inhibition constant (Ki) was more than 500 nM.
As for `CCN(Cc1ccncc1)C(=O)[C@H](CC(F)F)NC(=O)[C@@H]1[C@@H]2[C@H](CN1C(=O)[C@@H](NC(=O)N[C@H](CN(C)S(C)(=O)=O)C(C)(C)C)C(C)(C)C)C2(C)C` [Example 304], the Ki is more than 500 nM.
Turning to `CN(C[C@@H](NC(=O)N[C@H](C(=O)N1C[C@H]2[C@@H]([C@H]1C(=O)N[C@@H](CC(F)F)C(=O)NCCc1c(F)cccc1F)C2(C)C)C(C)(C)C)C(C)(C)C)S(C)(=O)=O` [Example 306], the Ki is less than 100 nM.
With `CCOc1cc(CCNC(=O)[C@H](CC(F)F)NC(=O)[C@@H]2[C@@H]3[C@H](CN2C(=O)[C@@H](NC(=O)N[C@H](CN(C)S(C)(=O)=O)C(C)(C)C)C(C)(C)C)C3(C)C)ccc1OC` [Example 286], the Ki was less than 100 nM.
`CN(C[C@@H](NC(=O)N[C@H](C(=O)N1C[C@H]2[C@@H]([C@H]1C(=O)N[C@@H](CC(F)F)C(=O)NS(=O)(=O)c1ccccc1)C2(C)C)C(C)(C)C)C(C)(C)C)S(C)(=O)=O` [Example 257]: the Ki was more than 500 nM.
`Cc1ccccc1CCNC(=O)[C@H](CC(F)F)NC(=O)[C@@H]1[C@@H]2[C@H](CN1C(=O)[C@@H](NC(=O)N[C@H](CN(C)S(C)(=O)=O)C(C)(C)C)C(C)(C)C)C2(C)C` [Example 259]: the Ki was less than 100 nM.
As for `CCOc1ccc(CCNC(=O)[C@H](CC(F)F)NC(=O)[C@@H]2[C@@H]3[C@H](CN2C(=O)[C@@H](NC(=O)N[C@H](CN(C)S(C)(=O)=O)C(C)(C)C)C(C)(C)C)C3(C)C)cc1OC` [Example 287], the Ki is less than 100 nM.
Take `CN(C[C@@H](NC(=O)N[C@H](C(=O)N1C[C@H]2[C@@H]([C@H]1C(=O)N[C@@H](CC(F)F)C(=O)N[C@@H]1CCC[C@H]1OCc1ccccc1)C2(C)C)C(C)(C)C)C(C)(C)C)S(C)(=O)=O` [Example 254]: the Ki is more than 500 nM.
Turning to `CN(C[C@@H](NC(=O)N[C@H](C(=O)N1C[C@H]2[C@@H]([C@H]1C(=O)N[C@@H](CC(F)F)C(=O)NCCc1ccc(-c3ccccc3)cc1)C2(C)C)C(C)(C)C)C(C)(C)C)S(C)(=O)=O` [Example 288], the Ki was less than 100 nM.
On to `Cc1ccc(CCNC(=O)[C@H](CC(F)F)NC(=O)[C@@H]2[C@@H]3[C@H](CN2C(=O)[C@@H](NC(=O)N[C@H](CN(C)S(C)(=O)=O)C(C)(C)C)C(C)(C)C)C3(C)C)c(C)c1` [Example 266], for which the Ki is less than 100 nM.
For the molecule `CN(C[C@@H](NC(=O)N[C@H](C(=O)N1C[C@H]2[C@@H]([C@H]1C(=O)N[C@@H](CC(F)F)C(=O)NC1Cc3ccccc3C1)C2(C)C)C(C)(C)C)C(C)(C)C)S(C)(=O)=O` [Example 218], the Ki is more than 500 nM.
On to `CN(C[C@@H](NC(=O)N[C@H](C(=O)N1C[C@H]2[C@@H]([C@H]1C(=O)N[C@@H](CC(F)F)C(=O)NCCc1ccc(N)cc1)C2(C)C)C(C)(C)C)C(C)(C)C)S(C)(=O)=O` [Example 262], for which the Ki is less than 100 nM.
`CN(C[C@@H](NC(=O)N[C@H](C(=O)N1C[C@H]2[C@@H]([C@H]1C(=O)N[C@@H](CC(F)F)C(=O)NCCc1ccc(C(C)(C)C)cc1)C2(C)C)C(C)(C)C)C(C)(C)C)S(C)(=O)=O` [Example 276]: the Ki was less than 100 nM.
Turning to `CN(C[C@@H](NC(=O)N[C@H](C(=O)N1C[C@H]2[C@@H]([C@H]1C(=O)N[C@@H](CC(F)F)C(=O)NCCc1cccnc1)C2(C)C)C(C)(C)C)C(C)(C)C)S(C)(=O)=O` [Example 236], the Ki is less than 100 nM.
Consider `CCCOc1ccc(CCNC(=O)[C@H](CC(F)F)NC(=O)[C@@H]2[C@@H]3[C@H](CN2C(=O)[C@@H](NC(=O)N[C@H](CN(C)S(C)(=O)=O)C(C)(C)C)C(C)(C)C)C3(C)C)cc1Cl` [Example 299], for which the Ki is less than 100 nM.
